The values that follow come from patent publication US11787785B2 (NOVARTIS AG, priority 2021, dated 2023).

Some results are limits rather than exact numbers.

This experiment deals with T1, WIZ protein (HiBit-WIZ fusion protein) (Homo sapiens, UniProt O95785+Q96SW2).
T1 construct: expressed in transfected cells
Kind of experiment: Quantification of WIZ protein levels in HiBit tag fusion protein assay (WIZ HiBit assay in 293T cells). The class given is cell-based. The arrangement: remaining activity / Dmax: dose or concentration left out as unconfirmed. The settings on record: for Dmax at 25 µM: 100 − Amax; for Dmax at 25 µM / remaining activity at 25 µM: 293T cells; for remaining activity at 25 µM: DMSO-normalized, curve-fitted percentage of WIZ-HiBit remaining at 25 uM; for DC50: WIZ HiBit assay in 293T cells, 10-point, 5-fold dose response, highest concentration 25 μM, about 18 hours, read-out: WIZ AC50. The protocol:
The HiBit system from Promega was used to develop high-throughput and quantitative assays to measure changes in WIZ protein levels in response to compounds. The HiBit tag was derived from a split Nanoluciferase and has the following protein sequence: […] (SEQ ID NO: 1). The complementary fragment of Nanoluciferase (known as LgBit, from Promega), was added to the HiBit tag to form an active Nanoluciferase enzyme whose activity can be precisely measured. In this way, the levels of a fusion protein with the HiBit tag can be quantified in cell lysates.
Lentiviral vectors, based on the Invitrogen™ pLenti6.2/V5 DEST backbone were constructed that places the HiBit tag upstream of WIZ and expressed the fusion protein from an HSVTK promotor.
To ensure moderate and consistent expression of the HiBit-WIZ fusion protein across all cells in the population, stable cell lines were constructed from cells harboring a single copy of the construct. Lentivirus packaged with the constructs were made using the ViraPower™ kit from Invitrogen™. 293T cells from ATCC (Catalog number: CRL-3216), were infected with the virus at low multiplicity of infection and selected by 5 μg/mL blasticidin in culture media for 2 weeks.
The levels of HiBit-WIZ tagged fusion proteins in compound-treated cell lines were measured as follows:
On day 1, cells were diluted to 1.0×10^6 cells/ml in normal growth medium. 20 μL of cell suspension were plated in each well of a solid white 384-well plate. Plates were incubated overnight in a 37° C. and 5% CO2 humidified tissue culture incubator.
On day 2, serial dilutions of compounds were made in 384-well plates. Compound plates were set up with DMSO in columns 1, 2, 23, 24, and 10-point compound dilution series in column 3-12 and column 13-22. 10 mM stock solution of compound were placed into column 3 or 13 and a 1:5 serial dilution was carried out until there was a 10-point dilution series per compound. 50 nL of diluted compounds were transferred into the plated cells by Echo® (Labcyte) acoustic transfer. The highest concentration of compound was 25 μM. Plates were incubated overnight (about 18 hours) in a 37° C. and 5% CO2 humidified tissue culture incubator.
On day 3, plates were removed from the incubator and allowed to equilibrate at room temperature for 60 minutes. HiBit substrate (Nano-Glo® HiBit Lytic Detection System, Promega Catalogue number: N3050) was added as described by the manufacturers protocols. Plates were incubated at room temperature for 30 minutes and luminescence was read using an EnVision® reader (PerkinElmer®). Data was analyzed and visualized using the Spotfire® software package.
WIZ Degradation Activity of Compounds (Table 1)
WIZ Amax reflects the DMSO-normalized, curve-fitted percentage of WIZ-HiBit remaining at 25 uM. It was calculated by normalizing […] controls to 100%, parametric curve fitting of the dose response data (10-point, 5-fold), followed by calculation of response at 25 uM using the fitted equation (nd=not determined).
(With HiBiT, luminescence reflects the tagged protein that the partner subunit can reach.)

[1] abbreviates: HEK-293T, read-out: % degradation of WIZ (100 − Amax).

T1 sequence (O95785 whole entry, the tested form may be a part): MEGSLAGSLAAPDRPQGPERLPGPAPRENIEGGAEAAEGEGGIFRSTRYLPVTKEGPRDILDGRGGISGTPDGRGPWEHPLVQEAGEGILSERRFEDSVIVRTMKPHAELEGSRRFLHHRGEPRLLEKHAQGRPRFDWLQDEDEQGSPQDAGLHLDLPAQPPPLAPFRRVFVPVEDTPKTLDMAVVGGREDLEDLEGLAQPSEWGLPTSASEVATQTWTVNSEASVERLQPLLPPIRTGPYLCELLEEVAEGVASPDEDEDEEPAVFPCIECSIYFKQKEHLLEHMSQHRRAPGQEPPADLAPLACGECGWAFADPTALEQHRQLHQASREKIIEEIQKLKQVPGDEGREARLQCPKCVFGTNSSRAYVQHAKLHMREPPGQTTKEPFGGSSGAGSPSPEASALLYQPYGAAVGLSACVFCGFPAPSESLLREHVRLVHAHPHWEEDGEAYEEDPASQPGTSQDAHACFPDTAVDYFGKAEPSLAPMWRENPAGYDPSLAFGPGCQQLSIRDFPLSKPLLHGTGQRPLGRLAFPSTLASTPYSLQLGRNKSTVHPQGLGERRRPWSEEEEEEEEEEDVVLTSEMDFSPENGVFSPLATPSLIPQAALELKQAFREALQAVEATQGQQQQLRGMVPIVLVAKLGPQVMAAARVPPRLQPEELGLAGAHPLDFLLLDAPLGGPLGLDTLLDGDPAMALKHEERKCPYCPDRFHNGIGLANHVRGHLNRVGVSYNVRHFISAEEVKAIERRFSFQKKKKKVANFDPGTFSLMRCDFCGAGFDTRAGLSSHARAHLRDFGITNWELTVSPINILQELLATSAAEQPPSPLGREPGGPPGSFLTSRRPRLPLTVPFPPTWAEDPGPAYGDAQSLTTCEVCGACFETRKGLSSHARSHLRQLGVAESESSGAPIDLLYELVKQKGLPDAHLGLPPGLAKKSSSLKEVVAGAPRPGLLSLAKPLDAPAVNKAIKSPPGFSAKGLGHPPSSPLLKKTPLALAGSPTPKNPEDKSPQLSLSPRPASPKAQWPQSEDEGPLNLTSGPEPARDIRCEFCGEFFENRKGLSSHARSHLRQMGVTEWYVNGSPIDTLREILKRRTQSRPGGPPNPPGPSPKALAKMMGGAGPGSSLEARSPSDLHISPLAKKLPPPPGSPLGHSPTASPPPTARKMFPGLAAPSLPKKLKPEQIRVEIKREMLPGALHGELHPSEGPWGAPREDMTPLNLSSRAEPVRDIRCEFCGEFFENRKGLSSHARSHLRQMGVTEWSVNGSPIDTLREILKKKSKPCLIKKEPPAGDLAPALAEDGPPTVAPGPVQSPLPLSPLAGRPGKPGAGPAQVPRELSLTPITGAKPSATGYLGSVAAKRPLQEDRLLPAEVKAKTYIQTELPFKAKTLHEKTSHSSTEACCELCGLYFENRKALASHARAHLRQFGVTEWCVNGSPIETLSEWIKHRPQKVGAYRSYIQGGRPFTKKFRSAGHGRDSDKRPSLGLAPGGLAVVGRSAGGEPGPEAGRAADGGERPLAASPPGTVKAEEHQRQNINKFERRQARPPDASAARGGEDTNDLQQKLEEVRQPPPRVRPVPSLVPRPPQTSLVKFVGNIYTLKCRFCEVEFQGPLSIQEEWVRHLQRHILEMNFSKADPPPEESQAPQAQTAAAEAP
T1 sequence (Q96SW2 whole entry, the tested form may be a part): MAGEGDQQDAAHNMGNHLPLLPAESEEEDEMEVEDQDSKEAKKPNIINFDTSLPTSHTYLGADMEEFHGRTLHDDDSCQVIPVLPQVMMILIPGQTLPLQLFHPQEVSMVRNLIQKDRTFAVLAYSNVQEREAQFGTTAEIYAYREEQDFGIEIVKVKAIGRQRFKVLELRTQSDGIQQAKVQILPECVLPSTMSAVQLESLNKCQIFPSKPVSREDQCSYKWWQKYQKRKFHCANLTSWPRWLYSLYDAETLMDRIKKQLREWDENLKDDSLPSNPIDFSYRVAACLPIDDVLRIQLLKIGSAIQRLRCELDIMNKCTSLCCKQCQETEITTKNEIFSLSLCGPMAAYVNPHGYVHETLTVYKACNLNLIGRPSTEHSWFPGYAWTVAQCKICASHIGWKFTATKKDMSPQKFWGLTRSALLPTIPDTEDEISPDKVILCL
T1 sequence (Q16531 whole entry partner, the tested form may be a part): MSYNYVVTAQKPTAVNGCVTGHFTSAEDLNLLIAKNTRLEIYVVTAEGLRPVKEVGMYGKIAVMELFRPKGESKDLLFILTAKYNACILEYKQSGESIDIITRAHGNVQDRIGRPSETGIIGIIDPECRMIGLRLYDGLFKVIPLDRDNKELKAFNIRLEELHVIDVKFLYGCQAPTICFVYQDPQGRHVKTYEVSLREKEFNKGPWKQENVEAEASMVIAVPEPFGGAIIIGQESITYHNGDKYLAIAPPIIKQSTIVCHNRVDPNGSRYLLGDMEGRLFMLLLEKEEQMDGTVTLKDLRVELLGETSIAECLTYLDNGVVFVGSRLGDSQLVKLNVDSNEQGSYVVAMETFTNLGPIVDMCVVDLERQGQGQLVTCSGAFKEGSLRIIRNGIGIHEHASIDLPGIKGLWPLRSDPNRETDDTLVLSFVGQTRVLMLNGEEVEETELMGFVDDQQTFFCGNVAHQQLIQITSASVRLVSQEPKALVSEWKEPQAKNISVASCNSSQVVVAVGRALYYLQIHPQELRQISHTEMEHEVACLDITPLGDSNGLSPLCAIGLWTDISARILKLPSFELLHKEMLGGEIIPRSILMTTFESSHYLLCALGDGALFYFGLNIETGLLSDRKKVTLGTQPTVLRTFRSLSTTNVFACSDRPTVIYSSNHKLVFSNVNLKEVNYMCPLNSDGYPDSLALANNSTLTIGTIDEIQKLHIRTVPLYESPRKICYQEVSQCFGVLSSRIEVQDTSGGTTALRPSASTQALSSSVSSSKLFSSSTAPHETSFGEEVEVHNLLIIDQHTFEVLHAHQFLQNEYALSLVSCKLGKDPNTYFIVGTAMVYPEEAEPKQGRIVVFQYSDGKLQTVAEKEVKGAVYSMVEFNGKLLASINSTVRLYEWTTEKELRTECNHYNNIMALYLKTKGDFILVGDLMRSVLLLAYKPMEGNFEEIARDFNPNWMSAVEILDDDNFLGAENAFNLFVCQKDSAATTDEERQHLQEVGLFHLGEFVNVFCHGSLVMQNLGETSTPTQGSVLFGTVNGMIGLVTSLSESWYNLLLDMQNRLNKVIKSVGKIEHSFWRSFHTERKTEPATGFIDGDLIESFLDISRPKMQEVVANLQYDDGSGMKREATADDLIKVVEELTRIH

Regarding `CN1CCCC(Cc2ccn3ncc(N4CCC(=O)NC4=O)c3c2)CC1` (stereo not drawn) [Example 271, 1-(5-((1-methylazepan-4-yl)methyl)pyrazolo[1,5-a]pyridin-3-yl)dihydropyrimidine-2,4(1H,3H)-dione], the DC50 came to 702 nM. Under setting [1], the Dmax at 25 µM worked out at 63%. Further, the remaining activity at 25 µM (HEK-293T, read-out: WIZ Amax) is 37%.
The like results for `CC(C)CN1CC[C@H](Cc2ccn3ncc(N4CCC(=O)NC4=O)c3c2)C[C@H]1C` [Example 153] were, in that order, 14 nM, 86% and 14%.
The like results for `CC(C)(O)CN1CCC(Cc2ccn3ncc(N4CCC(=O)NC4=O)c3c2)CC1` [Example 106, 1-(5-((1-(2-hydroxy-2-methylpropyl)piperidin-4-yl)methyl)pyrazolo[1,5-a]pyridin-3-yl)dihydropyrimidine-2,4(1H,3H)-dione] were, in that order, 283 nM, 68% and 32%.
The like results for `O=C1CCN(c2cnn3ccc(CN4CCN5CCCC[C@H]5C4)cc23)C(=O)N1` [Example 262, (S)-1-(5-((octahydro-2H-pyrido[1,2-a]pyrazin-2-yl)methyl)pyrazolo[1,5-a]pyridin-3-yl)dihydropyrimidine-2,4(1H,3H)-dione] were, in that order, 583 nM, 68% and 32%.
In the case of `CC(C)(O)CN1CCN(Cc2ccn3ncc(N4CCC(=O)NC4=O)c3c2)CC1` [Example 183, 1-(5-((4-(2-hydroxy-2-methylpropyl)piperazin-1-yl)methyl)pyrazolo[1,5-a]pyridin-3-yl)dihydropyrimidine-2,4(1H,3H)-dione], the DC50 came out at 468 nM. Besides, under setting [1], the Dmax at 25 µM is 65%. Further, the remaining activity at 25 µM (HEK-293T, read-out: WIZ Amax) worked out at 35%.
The like results for `O=C1CCN(c2cnn3ccc(CN4CCN(CC5CCCCC5)CC4=O)cc23)C(=O)N1` [Example 255, 1-(5-((4-(cyclohexylmethyl)-2-oxopiperazin-1-yl)methyl)pyrazolo[1,5-a]pyridin-3-yl)dihydropyrimidine-2,4(1H,3H)-dione] were, in that order, over 25000 nM, 0% and 100%.
In the same order, the values of `CS(=O)(=O)N1CCC(Cc2ccn3ncc(N4CCC(=O)NC4=O)c3c2)CC1` [Example 90] are 2000 nM, 77% and 23%.
`CC(C)CN1CC[C@H](Cc2ccn3ncc(N4CCC(=O)NC4=O)c3c2)C[C@@H]1C` [Example 72]: the DC50 was found to be 6 nM. The Dmax at 25 µM under setting [1] was determined as 87%. In addition, the remaining activity at 25 µM (HEK-293T, read-out: WIZ Amax) is 13%.
In the same order, the values of `C[C@H]1C[C@H](Cc2ccn3ncc(N4CCC(=O)NC4=O)c3c2)CCN1CC1CCC1` [Example 146] are 51 nM, 82% and 18%.
In the same order, the values of `C[C@H]1CN(Cc2ccn3ncc(N4CCC(=O)NC4=O)c3c2)CCN1C1CCCCC1` [Example 333] are 68 nM, 87% and 13%.
The like results for `CC(C)[C@H]1CN(Cc2ccn3ncc(N4CCC(=O)NC4=O)c3c2)CCN1CC1CCOCC1` [Example 230, (S)-1-(5-((3-isopropyl-4-((tetrahydro-2H-pyran-4-yl)methyl)piperazin-1-yl)methyl)pyrazolo[1,5-a]pyridin-3-yl)dihydropyrimidine-2,4(1H,3H)-dione] were, in that order, over 25000 nM, 0% and 100%.
As to `C[C@H]1CN(Cc2ccn3ncc(N4CCC(=O)NC4=O)c3c2)CCN1CC1CC(F)(F)C1` [Example 205], the DC50 was 24 nM. For the same compound, the Dmax at 25 µM under setting [1] was 82%. For the same compound, the remaining activity at 25 µM (HEK-293T, read-out: WIZ Amax) amounted to 18%.
The like results for `C[C@@H]1C[C@@H](Cc2ccn3ncc(N4CCC(=O)NC4=O)c3c2)CCN1CC1CCOCC1` [Example 154] were, in that order, 41 nM, 78% and 22%.
Take `Cc1cn(-c2cnn3ccc(C[C@@H]4CCN(CC5CC5)[C@@H](C)C4)cc23)c(=O)[nH]c1=O` [Example 348, 1-(5-(((2S,4R)-1-(cyclopropylmethyl)-2-methylpiperidin-4-yl)methyl)pyrazolo[1,5-a]pyridin-3-yl)-5-methylpyrimidine-2,4(1H,3H)-dione]: the DC50 was 400 nM. The Dmax at 25 µM under setting [1] came out at 86%. In addition, the remaining activity at 25 µM (HEK-293T, read-out: WIZ Amax) came out at 14%.
`COc1ccnc(N2CCC(Cc3ccn4ncc(N5CCC(=O)NC5=O)c4c3)CC2)n1` [Example 69, 1-(5-((1-(4-methoxypyrimidin-2-yl)piperidin-4-yl)methyl)pyrazolo[1,5-a]pyridin-3-yl)dihydropyrimidine-2,4(1H,3H)-dione]: the DC50 turned out to be 350 nM. In addition, under setting [1], the Dmax came out at 35%. Besides, under “HEK-293T, read-out: WIZ Amax”, the remaining activity was determined as 65%.
For `Cc1cn(-c2cnn3ccc(C[C@@H]4CCN(CC5CCC(F)(F)CC5)[C@@H](C)C4)cc23)c(=O)[nH]c1=O` [Example 351, 1-(5-(((2S,4R)-1-((4,4-difluorocyclohexyl)methyl)-2-methylpiperidin-4-yl)methyl)pyrazolo[1,5-a]pyridin-3-yl)-5-methylpyrimidine-2,4(1H,3H)-dione], the DC50 turned out to be 47 nM. Also, the Dmax at 25 µM under setting [1] turned out to be 91%. The remaining activity at 25 µM (HEK-293T, read-out: WIZ Amax) stood at 9%.
Regarding `C[C@H]1CN(Cc2ccn3ncc(N4CCC(=O)NC4=O)c3c2)CCN1C[C@H]1CC[C@H](C(F)(F)F)CC1` [Example 323, 1-(5-(((S)-3-methyl-4-(((1r,4S)-4-(trifluoromethyl)cyclohexyl)methyl)piperazin-1-yl)methyl)pyrazolo[1,5-a]pyridin-3-yl)dihydropyrimidine-2,4(1H,3H)-dione], the DC50 amounted to 4 nM. Also, the Dmax at 25 µM under setting [1] was determined as 83%. Also, where the note is “HEK-293T, read-out: WIZ Amax”, the remaining activity at 25 µM is 17%.
The like results for `C[C@H]1CN(Cc2ccn3ncc(N4CCC(=O)NC4=O)c3c2)CCN1C[C@H]1CC[C@H](O)CC1` [Example 201, 1-(5-(((S)-4-(((1r,4S)-4-hydroxycyclohexyl)methyl)-3-methylpiperazin-1-yl)methyl)pyrazolo[1,5-a]pyridin-3-yl)dihydropyrimidine-2,4(1H,3H)-dione] were, in that order, 20 nM, 88% and 12%.
The like results for `O=C1CCN(c2cnn3ccc(CC4CCN(Cc5ccc(C(F)(F)F)nc5)CC4)cc23)C(=O)N1` [Example 54, 1-(5-((1-((6-(trifluoromethyl)pyridin-3-yl)methyl)piperidin-4-yl)methyl)pyrazolo[1,5-a]pyridin-3-yl)dihydropyrimidine-2,4(1H,3H)-dione] were, in that order, 44 nM, 64% and 36%.
For `Cn1nccc1CN1CCN(Cc2ccn3ncc(N4CCC(=O)NC4=O)c3c2)CC1` [Example 195, 1-(5-((4-((1-methyl-1H-pyrazol-5-yl)methyl)piperazin-1-yl)methyl)pyrazolo[1,5-a]pyridin-3-yl)dihydropyrimidine-2,4(1H,3H)-dione], the DC50 was 2050 nM. The Dmax at 25 µM under setting [1] was determined as 48%. The remaining activity at 25 µM (HEK-293T, read-out: WIZ Amax) came to 52%.
As for `Cc1cn(-c2cnn3ccc(CN4CCN(CC5CC5)[C@@H](C)C4)cc23)c(=O)[nH]c1=O` [Example 362, (S)-1-(5-((4-(cyclopropylmethyl)-3-methylpiperazin-1-yl)methyl)pyrazolo[1,5-a]pyridin-3-yl)-5-methylpyrimidine-2,4(1H,3H)-dione], the DC50 is 765 nM. In addition, the Dmax at 25 µM under setting [1] amounted to 84%. Further, the remaining activity at 25 µM (HEK-293T, read-out: WIZ Amax) was determined as 16%.
